Laboratory results taken from US6087336A, “Peptide derivatives useful in treating autoimmune diseases” (Zeneca Limited, priority 1996, dated 2000).

Experiments:
[1] = type: physicochemical
Procedure: Degradation of Dettide on in vitro release from an extruded polymer depot
A solution of McIlvaine's citric acid-phosphate buffer solution at pH 7.6 containing 0.02% sodium azide, is filtered through a 0.22 μfilter and stored at 4° C. Approximately 10 mg of extruded polymer depot containing peptide is placed in two small vials and 2 ml of the buffer solution added. The vials are then capped and stored in a water bath at 37° C. for a month. At suitable time points over a month, three 0.6ml aliquots of release medium are removed from each vial and either analysed by HPLC or stored frozen in an HPLC vial at -18° C. prior to analysis by HPLC. 1.8 ml of the buffer solution is added to each vial containing the depot to replace the release medium that has been removed at each time point.
The average amount of intact peptide in the release medium at each time point is determined by HPLC using duplicate sample injections by comparing the area of the peptide peak in the release media with the area of the peptide peak from standard buffer solutions of peptide at known concentrations. The approximate average amount of peptide degradation products in the release media at each time point is determined by HPLC by comparing the area of additional new peaks in the release media with the area of the peptide peak from standard buffer solutions of peptide at known concentrations and assuming the extinction coefficient has not changed. The average cumulative in vitro release profile of intact peptide and total peptide (intact peptide and peptide degradation products) is determined from the amounts of intact peptide and peptide degradation products in the release medium at each time point. Preferred peptides of the present invention show minimal degradation on in vitro release and thus show total peptide degradation products of less than 10% and preferably less than 5% of total peptide after a month of in vitro release into Mcllvaine's buffer solution at pH 7.6 at 37° C.

HLA-DR4Dw4 = target: T1, HLA-DR4Dw4 (Homo sapiens, UniProt P01903+P01911, A100K/A169T/F76Y/I96L/K127E/L162R/M171V/N62H/P40V/Q125Y/R42H/S133A/S149N/S66Y/V115G/V209L/W38E); test: Test A: purified HLA-DR peptide in vitro binding assay; details: purified HLA-DR4Dw4, biotin-FHA307-320
T1 construct: a cDNA encoding the β chain is cloned into the transfer vector pAcUW1; made in house; host or cells: Sf21 insect cells, double-recombinant baculovirus
Procedure: Test A: Purified HLA-DR peptide in vitro binding assay. […]. At the end of the incubation period 100 μl of the incubate is transferred to Enzyme Linked lmmunoSorbant Assay (ELISA) plates (Nunc) previously coated with an anti-MHC antibody (L243--American Type Culture Collection (ATCC) HB55 --as described in Lampson and Levy (1980) J. Immunol. 125, 293-299) at a concentration of 10 μg/ml for 1 hour at room temperature and blocked thereafter for 1 hour with 1% bovine serum albumin (BSA) in PBS and 0.05% Tween 20. After a further 1 hour period the unbound peptide is washed away and a 1/4,000 dilution of streptavidin peroxidase (Sigma) in PBS with 0.01% of a suitable detergent such as NP40 (Sigma) added for 2 hours at room temperature. After further washing, tetramethylbenzidene (TMB) substrate solution (1 TMB tablet (Sigma) in 10 mIs of 0.1 M citrate/acetate buffer, pH 6.0 with 36 μl urea hydrogen peroxide (UHPO) (Fluka)) is added to each of the plates. The reaction is stopped by adding 2M sulphuric acid (10 μl per well) and the absorbance read at 450 nm to quantify the amount of peptide bound. The inhibitory activity of peptides is obtained by plotting absorbance against concentration.
The purified HLA-DR4Dw4 may be obtained as follows:
(i) Expression of HLA-DR in the Baculovirus System
The expression of recombinant proteins in insect cells from baculovirus vectors is an established procedure to obtain high yields of recombinant protein [Luckow, V A & Summers, M D, 1988, Biotechnology, 6, 47-551]. To enable the expression of the heterodimeric HLA-DR, eg. HLA-DR4Dw4, from a single recombinant baculovirus vector (as opposed to having separate recombinant viruses for the α and β chains and then doing a co-infection), a double-recombinant baculovirus is constructed which carries both the α and β chains.
A cDNA encoding the sequence of the α polypeptide is cloned into the transfer vector pacYM1 [Matsuura, Y; Possee, R D; Overton, H A & Bishop, D H L, 1987, J. Gen. […] The molecular genetic techniques used to construct the recombinant vectors are likewise readily available in the literature and are most fully described by Sambrook, J; Fritsch, E F & Maniatis T, (1989) [Molecular Cloning. […]
To create the double-recombinant baculovirus, a cDNA encoding the β chain is cloned into the transfer vector pAcUW1 [Weyer, U; Knight, S & Possee, R D, 1990, J. Gen. […] Double-recombinant viruses are detected by spotting insect cells, infected with randomly picked viruses from the transfection, onto membranes and reacting them with a monoclonal antibody, e.g. L243, which specifically recognises the HLA-DR heterodimer. Binding of the antibody to Sf21 insect cells is detected using standard flow cytometry techniques, readily available in the literature. […]

| Substance | degradation on release from depot formulation [1] | concentration showing significant binding to HLA-DR4Dw4 in Test A (HLA-DR4Dw4) [µM] |
| --- | --- | --- |
| Phv-Arg-Ala-Ala-Ala-Val-IIb-Ala-Pip-NH2 [Example 5] | minimal degradation on release | < 0.1 |
| Phv-Ala-Arg-Ala-IIb-Ala-Arg-Ala-Papa-NH2 [Example 23] | minimal degradation on release | < 0.1 |
| Phv-Gap(Me)4 -Ala-Ala-Ala-Thr-IIb-Ala-Papa-NH2 [Example 16] | minimal degradation on release | < 0.1 |
